Measured values: patent US5650395A, “Treatment of pulmonary hypertension” (priority 1995, dated 1997)
pIC50: −log10 of the molar value. Where a SMILES comes first, the peptide text is derived from it. Where no end group is shown, it is not given here. [ ]: non-standard residue; d: D form. dPhe(F5) = N[C@H](Cc1c(F)c(F)c(F)c(F)c1F)C(=O)O

What was measured:
[1] = system: patient with pulmonary hypertension; experiment: Infusion in a patient with pulmonary hypertension secondary to liver disease (Swan-Ganz catheterization); assay type: in vivo, human
Excerpt: BIM-26226, a bombesin antagonist, was further administered to a patient to test its efficacy in lowering the pulmonary systolic or diastolic pressure.
The patient, complained of increasing shortness of breath under moderate exertion. […] A clinical diagnosis of pulmonary hypertension, secondary to liver disease, was made.
An 8 G french introducer (Arrow, Reading, Pa.) was inserted into the right internal jugular vein of the patient. A 7 G french triple lumen-balloon inflation lumen Swan-Ganz line (Abbot, N. Chicago, Ill.) was inserted through the introducer. The catheter was first floated through the right atrium and ventricle into the pulmonary artery, and was then connected to a Hewlett Packard monitor (Model 66s, M1166A) using modules M1006A, M1020A, 1029A, 1008A, and M1166A. Measurements of central venous pressure, pulmonary artery pressure, mean pulmonary pressure, cardiac index, cardiac output, and pulmonary vascular resistance were analyzed directly. A 20 G arterial line was inserted into the left radial artery (Arrow, Reading, Pa.) for measurement of systemic blood pressure and blood gas partial pressure estimations.
The study was conducted in two phases. The placebo phase, which lasted 24 hours, consisted of an infusion of normal saline (0.9% NaCl) at a constant rate of 50 ml/hr. The active phase consisted of an infusion of BIM-26226 in increasing concentrations. BIM-26226 was supplied as lyophilized powder. BIM-26226 was reconstituted in water, and then diluted in normal saline initially to give an infusion concentration of 5 μg/kg/hr. The concentration was increased every four hours to a maximum of 200 mcg/kg/hr. BIM-26226 was administered through the jugular line at a constant infusion rate of 50 ml/hr. Observations as detailed above were recorded at least hourly, though more often if indicated. In addition, blood samples were taken every four hours for biochemical profile, hematological screening, and both peripheral and central GRP levels. The GRP level samples were collected on ice, centrifuged, and snap-frozen. Analysis on the GRP levels was performed using an established radioimmunoassay.
FIG. 1 summarizes the study. The pulmonary systolic and diastolic pressures are compared between both the infusion of the saline placebo (Plac sys and Plac dias) and BIM-26226 (BIM sys and BIM dias). The doses of BIM-26226 administered and the administration scheme are shown at the top of FIG. 1, e.g., 5 μg/kg/hr four hours initially.

GRP receptor [2] = biological target: T1, GRP receptor (Rattus norvegicus, UniProt P52500); experiment: GRP receptor binding assay ([125I-Tyr4]bombesin, AR42J cell membranes); settings: 30 min, 4° C., read-out: IC50 (concentration required to inhibit 50% of specific binding of [125I-Tyr4]bombesin)
T1 construct: endogenous in cells; host or cells: Rat AR42J cells
Protocol: Membranes for the GRP receptor binding assay were obtained by homogenizing cultured AR42J cells (ATCC No. CRL-1492; American Type Culture Collection, Rockville, Md.) using a Polytron homogenizer (Brinkman Instruments, Westchester, N.Y.) at a setting of 6 for 15 sec. in an ice-cold 50 mM Tris-HCl buffer (Buffer A; Sigma, St. Louis, Mo.). See Singh, et al., 258 Am. J. Physiol. […] (1990). The homogenate was centrifuged twice at 39,000×g (10 min.) with an intermediate resuspension in fresh Buffer A. The final pellets were resuspended in Buffer A containing 0.1 mg/ml bacitracin and 0.1% bovine serum albumin (Buffer B) and held on ice for the receptor binding assay. Both bacitracin and bovine serum albumin were purchased from Sigma, St. Louis, Mo. Aliquots (0.4 ml) of the cell suspension were incubated with 0.05 ml of [^[…] ] bombesin (~2200 Ci/mmol; New England Nuclear, Boston, Mass.) in Buffer B and 0.05 ml of the test peptide (e.g., BIM-26226) at various concentrations (e.g., 0M to 10^-6 M) in Buffer B. […] Louis, Mo.). The filters were then washed three times with 5 ml aliquots of ice-cold Buffer A. Specific binding was defined as the total [^[…] ]bombesin bound in the presence of the test peptide minus that bound in the presence of 1 μM unlabeled GRP. […] BIM-26226, thus, has a high affinity for the GRP receptor. In other words, it is a GRP ligand.

GRP receptor [3] = biological target: T1, GRP receptor; experiment: Calcium mobilization assay in AR42J cells (Fura-2AM); assay type: cell-based; settings: for increase of intracellular calcium concentration: peptide alone at 10 nM, AR42J cells
Protocol: A working example follows:
Rat AR42J cells were cultured in DMEM medium containing 10% fetal bovine serum (Sigma, St. Louis, Mo.) in an atmosphere of 5% CO2 and 95% air at 37° C. After 5 days of culture, the cells were harvested by incubating in a 0.3% EDTA/phosphate buffered saline solution (Sigma, St. Louis, Mo.) (25° C.) and washed twice by centrifugation. The washed cells were resuspended in Hank's-buffered saline solution (HBSS) (Sigma, St. Louis, Mo.) for loading of the fluorescent Ca^2+ indicator Fura-2AM (Molecular Probes, Eugene, Oreg.). Cell suspensions of approximately 10^6 cells/ml were incubated with 2 μM Fura-2AM for 30 min at 25° C. Unloaded Fura-2AM was removed by centrifugation (twice) in HBSS, and the final cell suspensions were transferred to a spectrofluorometer (Hitachi F-2000, Tokyo, Japan) equipped with a magnetic stirring mechanism and a temperature-regulated cuvette holder. After equilibration to 37° C., a test peptide or a known GRP […] was added for measurement of Ca^2+ mobilization. The excitation and emission wavelengths were 340 and 510 nm, respectively.

[4] = system: isolated pulmonary arteries; settings: cited from earlier work
pulmonary haemodynamics = settings: wide range of experimental conditions; cited from earlier work

T1 sequence (P52500 whole entry): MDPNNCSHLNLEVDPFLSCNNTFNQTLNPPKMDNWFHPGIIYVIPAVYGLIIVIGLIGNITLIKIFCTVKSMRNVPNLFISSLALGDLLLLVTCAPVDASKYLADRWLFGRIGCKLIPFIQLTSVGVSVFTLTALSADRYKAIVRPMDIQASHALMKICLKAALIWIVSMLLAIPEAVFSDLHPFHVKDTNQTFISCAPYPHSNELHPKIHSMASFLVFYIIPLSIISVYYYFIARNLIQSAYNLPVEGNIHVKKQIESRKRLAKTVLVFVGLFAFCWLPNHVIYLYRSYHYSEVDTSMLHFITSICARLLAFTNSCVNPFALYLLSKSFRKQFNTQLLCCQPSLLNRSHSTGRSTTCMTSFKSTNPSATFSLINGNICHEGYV

COC(=O)[C@H](CC(C)C)NC(=O)[C@H](Cc1c[nH]cn1)NC(=O)[C@@H](C)NC(=O)[C@@H](NC(=O)[C@H](C)NC(=O)[C@H](Cc1c[nH]c2ccccc12)NC(=O)[C@H](CCC(N)=O)NC(=O)[C@H](N)Cc1c(F)c(F)c(F)c(F)c1F)C(C)C [BIM-26226, H-D-F5 -Phe-Gln-TrP-Ala-Val-D-Ala-His-Leu-O-CH3] (H-[dPhe(F5)]QWAV[dA]HL-OMe)
adverse events ([1]; active phase of infusion): Other than a mild urticarial response during the early active phase, the patient had no adverse events
pulmonary diastolic pressure ([1]; infusion rate of 200 μg/kg/hr, from 35 mm Hg): 42 mm Hg
pulmonary systolic pressure ([1]; infusion rate of 200 μg/kg/hr, from 90 mm Hg): 55 mm Hg
infusion rate at which pulmonary systolic pressure started to decrease ([1]; intravenous infusion, increasing doses every four hours): 25 µg/kg/h
pulmonary systolic pressure upon rechallenge ([1]; rechallenge after discontinuation): again dramatically decreased
blood biochemistry ([1]; upon infusion): no changes
cardiac index ([1]; upon infusion): no changes
cardiac output ([1]; upon infusion): no changes
peripheral vascular resistance ([1]; upon infusion): no changes
right atrial pressure ([1]; upon infusion): no changes
systemic blood pressure ([1]; upon infusion): no changes
period over which pulmonary pressure rose upon discontinuation of drug administration ([1]; within two half-lives of the drug): 15 min
pIC50 (GRP receptor [2]): 9.30
increase of intracellular calcium concentration (GRP receptor [3]): no effect
increase of intracellular calcium concentration by bombesin (10 nM) after pretreatment with antagonist (GRP receptor [3]; pretreated with BIM-26226 (10 nM)): 300 nM
reduction of bombesin-induced calcium increase versus bombesin alone (GRP receptor [3]; pretreated with BIM-26226 (10 nM), bombesin 10 nM): 205 nM

CSCC[C@H](NC(=O)[C@H](CC(C)C)NC(=O)[C@H](Cc1cnc[nH]1)NC(=O)CNC(=O)[C@@H](NC(=O)[C@H](C)NC(=O)[C@H](Cc1c[nH]c2ccccc12)NC(=O)[C@H](CCC(N)=O)NC(=O)[C@H](CC(N)=O)NC(=O)CNC(=O)[C@H](CC(C)C)NC(=O)[C@H](CCCN=C(N)N)NC(=O)[C@H](CCC(N)=O)NC(=O)[C@@H]1CCC(=O)N1)C(C)C)C(N)=O [Bombesin]
effect on isolated pulmonary arteries [4]: not to have an effect
increase of intracellular calcium concentration (GRP receptor [3]): 505 nM
in vivo pulmonary haemodynamic effect (pulmonary haemodynamics): neither bombesin nor GRP, under a wide range of experimental conditions, have any demonstrable in vivo pulmonary haemodynamic effect

COc1ccc([C@@H]2Sc3ccccc3N(CCN(C)C)C(=O)[C@@H]2OC(C)=O)cc1 [diltiazem, reference compound]
effect on pulmonary pressure (therapeutic trial) ([1]; patient, before the BIM-26226 study): did not lower the pulmonary pressure

GRP: 27-amino acid peptide first isolated from the porcine gut (APVSVGGGTVLAKMYPRGNHWAVGHLM; ends and bridges not checked; UniProt P63153 24-50, looked up)
in vivo pulmonary haemodynamic effect (pulmonary haemodynamics): neither bombesin nor GRP, under a wide range of experimental conditions, have any demonstrable in vivo pulmonary haemodynamic effect
